One series concerns intracellular HBV DNA. The series is described as follows: Real-time PCR for intracellular HBV DNA in HepAD38 cells. The series is classed as cell-based. The conditions noted are these: Hepatitis B virus, HePAD38, 65 h, 65 hours treatment. (Real-time PCR tracks product formation cycle by cycle.)
Another series addresses Protein (Hepatitis B virus genotype D subtype ayw, UniProt P03146). Kind of series: Protein inhibition rate / EC50 (Table 1, no method described). Format: biochemical.
Series [1] is described as follows: Cell viability assay (EZ-Cytox), cytotoxicity. The series is classed as cell-based. Conditions: human, HepAD38 cells; for viability at 65 h, 100 µM: read-out: Cytotoxicity % Livability (@100 μM). As to the method: HepAD38 cells were cultured for 2 days in Dulbecco's Modified Eagle's medium (Welgene, LM001-05) supplemented with 10% FBS without tetracycline. […] After 65 hours of treatment, viability was measured using EZ-Cytox cell viability assay kit (Daeil Lab Service) according to the manufacturer's instructions. The absorbance was measured at 450 nm using a spectrophotometer (Spark, Tecan).

The term IC50 denotes the concentration that gives 50% inhibition. High values mean lower potency, low ones higher potency. Broadly, the EC50 is the concentration that produces a half-maximal response. A low value points to greater potency. The inhibition is the drop in the measured response relative to a control, in per cent. The low end stands for a weak effect, the high end for a strong effect. By CC50 is commonly meant the concentration that lowers cell viability or growth by half. High values mean better tolerance by the cells, low ones harm at low concentration.

Protein, sequence (P03146 whole entry): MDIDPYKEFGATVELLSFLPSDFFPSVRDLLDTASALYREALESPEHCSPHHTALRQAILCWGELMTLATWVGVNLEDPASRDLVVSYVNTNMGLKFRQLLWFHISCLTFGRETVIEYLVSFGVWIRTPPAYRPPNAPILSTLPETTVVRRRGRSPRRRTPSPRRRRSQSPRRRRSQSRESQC

Compound `O=C(Nc1ccc(F)c(Cl)c1)N(Cc1n[nH]c2c1CCCC2)c1ccon1` [Example 132, 3-(3-chloro-4-fluorophenyl)-1-(isoxazol-3-yl)-1-((4,5,6,7-tetrahydro-1H-indazol-3-yl)methyl)urea] had an IC50 in the series on intracellular HBV DNA of 55 nM. On Protein, this compound gave an EC50 of 5.3 µM and an inhibition at 30 µM of 86.9%. In series [1], the CC50 at 65 h is > 100 µM and the viability at 65 h, 100 µM came out at 81.9%.
For `COc1ccc(N(Cc2n[nH]c3c2CSCC3)C(=O)Nc2ccc(F)c(Cl)c2)cn1` [Example 45, 3-(3-chloro-4-fluorophenyl)-1-(6-methoxypyridin-3-yl)-1-((1,4,6,7-tetrahydrothiopyrano[4,3-c]pyrazol-3-yl)methyl)urea] the same measures were 12 nM, 3.3 µM, 95.6%, > 50 µM and 3.3%.
On to `COc1ccc(N(Cc2n[nH]c3c2CC(CO)CC3)C(=O)Nc2ccc(F)c(Cl)c2)cn1` (centres unmarked) [Example 44, 3-(3-chloro-4-fluorophenyl)-1-((5-(hydroxymethyl)-4,5,6,7-tetrahydro-1H-indazol-3-yl)methyl)-1-(6-methoxypyridin-3-yl)urea], for which the IC50 with intracellular HBV DNA is > 1100 nM. The compound further showed an inhibition at 30 µM on Protein of 58%. In series [1], the CC50 at 65 h was > 100 µM and the viability at 65 h, 100 µM came out at 100%.
On to `COc1ccc(N(Cc2n[nH]c(C)c2C)C(=O)Nc2ccc(F)c(Cl)c2)cn1` [Example 57, 3-(3-chloro-4-fluorophenyl)-1-((4,5-dimethyl-1H-pyrazol-3-yl)methyl)-1-(6-methoxypyridin-3-yl)urea], for which half-maximal inhibition in the series with intracellular HBV DNA (IC50) required 23 nM. At Protein, this compound displayed an EC50 of 2 µM and an inhibition at 30 µM of 96.2%. Besides, in series [1], the CC50 at 65 h is > 100 µM and the viability at 65 h, 100 µM is 93.2%.
Regarding `COc1ccc(N(Cc2n[nH]c3c2CCCC3)C(=O)Nc2ccc(F)c(Cl)c2)cn1` [Example 42, 3-(3-chloro-4-fluorophenyl)-1-(6-methoxypyridin-3-yl)-1-((4,5,6,7-tetrahydro-1H-indazol-3-yl)methyl)urea], in the series on intracellular HBV DNA, the IC50 turned out to be 37 nM. A half-maximal effect at Protein (EC50) was put at 4.3 µM. Also, at Protein (@3 μM (footnote *)), the inhibition at 3 µM was 13%. Besides, in series [1], the CC50 at 65 h was > 100 µM and the viability at 65 h, 100 µM was found to be 99.5%.
Turning to `COc1ccc(N(Cc2n[nH]c3c2CC(C(=O)O)CC3)C(=O)Nc2ccc(F)c(Cl)c2)cn1` (centres unmarked) [Example 52, 3-((3-(3-chloro-4-fluorophenyl)-1-(6-methoxypyridin-3-yl)ureido)methyl)-4,5,6,7-tetrahydro-1H-indazole-5-carboxylic acid], the IC50 in the series on intracellular HBV DNA is > 1100 nM. This compound also showed an inhibition at 30 µM on Protein of 4%. Moreover, in series [1], the CC50 at 65 h is > 100 µM and the viability at 65 h, 100 µM stood at 100%.
For `O=C(O)c1ccc(N(Cc2n[nH]c3c2CCCC3)C(=O)Nc2ccc(F)c(Cl)c2)cc1` [Example 131, 4-(3-(3-chloro-4-fluorophenyl)-1-((4,5,6,7-tetrahydro-1H-indazol-3-yl)methyl)ureido)benzoic acid], the IC50 in the series with intracellular HBV DNA is > 1100 nM. Besides, at Protein, the EC50 is 3.8 µM and the inhibition at 30 µM stood at 94.7%. Moreover, in series [1], the CC50 at 65 h was > 100 µM and the viability at 65 h, 100 µM came to 100%.
With `COc1ccc(N(Cc2n[nH]c3c2CCCC3)C(=O)Nc2ccc(F)c(Cl)c2)cc1OC` [Example 116, 3-(3-chloro-4-fluorophenyl)-1-(3,4-dimethoxyphenyl)-1-((4,5,6,7-tetrahydro-1H-indazol-3-yl)methyl)urea], the IC50 with intracellular HBV DNA is > 1100 nM. On Protein, this compound had an inhibition at 30 µM of 69.5%. Also, in series [1], the CC50 at 65 h is > 100 µM and the viability at 65 h, 100 µM came to 104%.
Regarding `COc1ccc(N(Cc2n[nH]c3c2CC(C)(C)CC3)C(=O)Nc2ccc(F)c(Cl)c2)cn1` [Example 47, 3-(3-chloro-4-fluorophenyl)-1-((5,5-dimethyl-4,5,6,7-tetrahydro-1H-indazol-3-yl)methyl)-1-(6-methoxypyridin-3-yl)urea], in the series with intracellular HBV DNA, the midpoint of inhibition, the IC50, lay at 990 nM. For the same compound, at Protein, the half-maximal effective concentration (EC50) was determined as 9.6 µM and testing at 30 µM gave an inhibition of 95.3%. Besides, in series [1], the CC50 at 65 h is > 100 µM and the viability at 65 h, 100 µM was found to be 50.7%.
For `O=C(Nc1ccc(F)c(Cl)c1)N(Cc1n[nH]c2c1CCCC2)c1cc[nH]c(=O)c1` [Example 15, 3-(3-chloro-4-fluorophenyl)-1-(2-oxo-1,2-dihydropyridin-4-yl)-1-((4,5,6,7-tetrahydro-1H-indazol-3-yl)methyl)urea] the same measures were 310 nM, 1.4 µM, 64.7%, > 100 µM and 84%.
Consider `COc1ccc(N(Cc2n[nH]c3c2CCCC3)C(=O)Nc2ccc(F)c(Cl)c2)cc1` [Example 32, 3-(3-chloro-4-fluorophenyl)-1-(4-methoxyphenyl)-1-((4,5,6,7-tetrahydro-1H-indazol-3-yl)methyl)urea], for which the IC50 with intracellular HBV DNA was 9.9 nM. In addition, on Protein, the EC50 is 9.4 µM and the inhibition at 30 µM was determined as 5%. Also, in series [1], half-maximal cytotoxicity (CC50 at 65 h) was put at 81.4 µM and the viability at 65 h, 100 µM came out at 4.1%.
For `COc1ccc(N(Cc2n[nH]c3c2CCCO3)C(=O)Nc2ccc(F)c(Cl)c2)cn1` [Example 63, 3-(3-chloro-4-fluorophenyl)-1-(6-methoxypyridin-3-yl)-1-((1,4,5,6-tetrahydropyrano[2,3-c]pyrazol-3-yl)methyl)urea] the same measures were 14 nM, 2.6 µM, 90.5%, > 100 µM and 94.5%.
Taken in the same sequence, the figures for `COc1ccc(N(Cc2n[nH]c3c2CC(F)(F)CC3)C(=O)Nc2ccc(F)c(Cl)c2)cn1` [Example 40, 3-(3-chloro-4-fluorophenyl)-1-((5,5-difluoro-4,5,6,7-tetrahydro-1H-indazol-3-yl)methyl)-1-(6-methoxypyridin-3-yl)urea] were 16 nM, 3.8 µM, 99.5%, 82.5 µM and 4.6%.
For `O=C(Nc1ccc(F)c(Cl)c1)N(Cc1n[nH]c2c1CCC2)c1ccc(O)cc1` [Example 114, 3-(3-chloro-4-fluorophenyl)-1-(4-hydroxyphenyl)-1-((1,4,5,6-tetrahydrocyclopenta[c]pyrazol-3-yl)methyl)urea] the same measures were 14 nM, 1.6 µM, 74.6%, 54.5 µM and 7.9%.
On to `COc1ccc(N(Cc2cc[nH]n2)C(=O)Nc2ccc(F)c(Cl)c2)cc1` [Example 34, 1-((1H-pyrazol-3-yl)methyl)-3-(3-chloro-4-fluorophenyl)-1-(4-methoxyphenyl)urea], for which the IC50 with intracellular HBV DNA was > 1100 nM. The compound also showed an inhibition at 30 µM against Protein of 55.2%. In addition, the viability at 65 h, 100 µM in series [1] was determined as 92.9%.
The compound `COc1ccc(N(Cc2cc(OC)[nH]n2)C(=O)Nc2ccc(F)c(Cl)c2)cn1` [Example 64, 3-(3-chloro-4-fluorophenyl)-1-((5-methoxy-1H-pyrazol-3-yl)methyl)-1-(6-methoxypyridin-3-yl)urea] yielded an IC50 in the series on intracellular HBV DNA of 180 nM. At Protein, the EC50 was found to be 5.8 µM and testing at 30 µM gave an inhibition of 91.1%. Moreover, in series [1], the CC50 at 65 h is > 100 µM and the viability at 65 h, 100 µM is 100%.
`COC(=O)C1CCc2[nH]nc(CN(C(=O)Nc3ccc(F)c(Cl)c3)c3ccc(OC)nc3)c2C1` (centres unmarked) [Example 53, methyl 3-((3-(3-chloro-4-fluorophenyl)-1-(6-methoxypyridin-3-yl)ureido)methyl)-4,5,6,7-tetrahydro-1H-indazole-5-carboxylate]: in the series with intracellular HBV DNA, the concentration for half-maximal inhibition (IC50) was > 1100 nM. The same compound displayed an inhibition at 30 µM at Protein of 20.1%. Moreover, in series [1], the CC50 at 65 h is > 100 µM and the viability at 65 h, 100 µM came to 58.9%.
In turn, `COc1ccc(N(Cc2nn(C)c3c2CCCC3)C(=O)Nc2ccc(F)c(Cl)c2)cc1` [Example 36, 3-(3-chloro-4-fluorophenyl)-1-(4-methoxyphenyl)-1-((1-methyl-4,5,6,7-tetrahydro-1H-indazol-3-yl)methyl)urea] showed an IC50 in the series with intracellular HBV DNA of 36 nM. At Protein, the EC50 worked out at 9.2 µM and the inhibition at 30 µM was 91.6%. Further, in series [1], the CC50 at 65 h is > 100 µM and the viability at 65 h, 100 µM turned out to be 100%.
Take `COc1cc(N(Cc2n[nH]c3c2CCCC3)C(=O)Nc2ccc(F)c(Cl)c2)ccn1` [Example 54, 3-(3-chloro-4-fluorophenyl)-1-(2-methoxypyridin-4-yl)-1-((4,5,6,7-tetrahydro-1H-indazol-3-yl)methyl)urea]: the IC50 in the series on intracellular HBV DNA stood at 13 nM. On Protein, this compound registered an EC50 of 3.5 µM and an inhibition at 30 µM of 84%. In addition, in series [1], half-maximal cytotoxicity (CC50 at 65 h) was put at 40.6 µM and the viability at 65 h, 100 µM is 17.4%.
For the compound `COC(=O)c1ccc(N(Cc2n[nH]c3c2CCCC3)C(=O)Nc2ccc(F)c(Cl)c2)cc1` [Example 31, methyl 4-(3-(3-chloro-4-fluorophenyl)-1-((4,5,6,7-tetrahydro-1H-indazol-3-yl)methyl)ureido)benzoate], in the series on intracellular HBV DNA, the IC50 came to 410 nM. At Protein, this compound registered an EC50 of 3.3 µM and an inhibition at 30 µM of 90.4%. In series [1], the cytotoxic concentration (CC50) at 65 h was > 100 µM and the viability at 65 h, 100 µM stood at 91.2%.
Turning to `O=C(Nc1ccc(F)c(Cl)c1)N(Cc1n[nH]c2c1CCCC2)c1nncs1` [Example 133, 3-(3-chloro-4-fluorophenyl)-1-((4,5,6,7-tetrahydro-1H-indazol-3-yl)methyl)-1-(1,3,4-thiadiazol-2-yl)urea], in the series with intracellular HBV DNA, the IC50 was determined as 110 nM. The compound also had an inhibition at 30 µM at Protein of 5%. In addition, in series [1], the CC50 at 65 h was 74.2 µM and the viability at 65 h, 100 µM was determined as 4.3%.
